How the values were obtained:
[1] = tested on: clinical isolates of A. baumannii; assay: MIC for clinical isolates in CAMHB media (Table 3); type: cell-based; details: Acinetobacter baumannii
Protocol: Individual MICs were determined following the microdilution method recommended by CLSI in cationic-adjusted Mueller-Hinton Broth (CAMHB), or M9 media. […] Tests were performed in triplicate. MIC of iron chelators were determined for noscomial ESKAPE pathogens.

[2] = tested on: clinical isolates of A. baumannii; assay: MIC for clinical isolates in RPMI (low iron) media (Table 4); type: cell-based; set-up: key to MIC of Iron Chelators: NG = no growth in table 4; details: for MIC: Acinetobacter baumannii
Protocol: […] […] Tests were performed in triplicate. MIC of iron chelators were determined for noscomial ESKAPE pathogens.
For a number of strains, the iron chelators produced no growth of bacteria (NG).

[3] = tested on: A. baumannii strain AB19606; assay: Growth (OD600) with chelator, Rifampin or both; type: cell-based; details: CAMHB
Protocol: A. baumannii strain AB19606 was grown in CAMHB and challenged with 1.5×MIC compound 4 (Var) or 1.5×MIC Triapine (Tri) with or without 0.75×MIC Rifampin (Rif). Growth was estimated by absorbance at 600 nm (y-axis) at 0 or 24 hours.

E. coli strain EC35218 = assay: Growth (OD600) with chelator, Rifampin or both; type: cell-based; details: CAMHB
Protocol: E. coli strain EC35218 was grown in CAMHB and challenged with 1.5×MIC compound 4 (Var) or 1.5×MIC Triapine (Tri) with or without 0.75×MIC Rifampin (Rif). Growth was estimated by absorbance at 600 nm (y-axis) at 0 or 24 hours.

[4] = tested on: A. baumannii, strain AB5711; assay: Growth curves (OD600) in CAMHB with compound 4; type: cell-based
Text: It should be noted that the inhibition occurred in a dose-responsive manner.

[5] = Stability in aqueous solution; type: physicochemical
[6] = AB3638, read-out: MIC of Iron Chelators
[7] = AB3785, read-out: MIC of Iron Chelators
[8] = AB3806, read-out: MIC of Iron Chelators
[9] = AB3917, read-out: MIC of Iron Chelators
[10] = AB4025, read-out: MIC of Iron Chelators
[11] = AB4026, read-out: MIC of Iron Chelators
[12] = AB4027, read-out: MIC of Iron Chelators
[13] = AB4052, read-out: MIC of Iron Chelators
[14] = AB4269, read-out: MIC of Iron Chelators
[15] = AB4448, read-out: MIC of Iron Chelators
[16] = AB4456, read-out: MIC of Iron Chelators
[17] = AB4490, read-out: MIC of Iron Chelators
[18] = AB4498, read-out: MIC of Iron Chelators
[19] = AB4795, read-out: MIC of Iron Chelators
[20] = AB4857, read-out: MIC of Iron Chelators
[21] = AB4878, read-out: MIC of Iron Chelators
[22] = AB4932, read-out: MIC of Iron Chelators
[23] = AB4957, read-out: MIC of Iron Chelators
[24] = AB4991, read-out: MIC of Iron Chelators
[25] = AB5001, read-out: MIC of Iron Chelators
[26] = AB5075, read-out: MIC of Iron Chelators
[27] = AB5197, read-out: MIC of Iron Chelators
[28] = AB5256, read-out: MIC of Iron Chelators
[29] = AB5674, read-out: MIC of Iron Chelators
[30] = AB5711, read-out: MIC of Iron Chelators
[31] = 1.5×MIC chelator in combination with 0.75×MIC Rifampin
[32] = alone: 1.5×MIC chelator or 0.75×MIC Rifampin

MIC ([1]; AB967, read-out: MIC of Iron Chelators): 500 µg/mL
MIC ([1]; AB2828, read-out: MIC of Iron Chelators): 500 µg/mL
MIC ([1]; AB3340, read-out: MIC of Iron Chelators): 500 µg/mL
MIC ([1]; AB3560, read-out: MIC of Iron Chelators): 500 µg/mL
MIC [1, 6]: 500 µg/mL
MIC [1, 7]: 500 µg/mL
MIC [1, 8]: 1000 µg/mL
MIC [1, 9]: 500 µg/mL
MIC ([1]; AB3927, read-out: MIC of Iron Chelators): 500 µg/mL
MIC [1, 10]: 500 µg/mL
MIC [1, 11]: 500 µg/mL
MIC [1, 12]: 500 µg/mL
MIC [1, 13]: 1000 µg/mL
MIC [1, 14]: 500 µg/mL
MIC [1, 15]: 500 µg/mL
MIC [1, 16]: 500 µg/mL
MIC [1, 17]: 500 µg/mL
MIC [1, 18]: 500 µg/mL
MIC [1, 19]: 500 µg/mL
MIC [1, 20]: 500 µg/mL
MIC [1, 21]: 500 µg/mL
MIC [1, 22]: 500 µg/mL
MIC [1, 23]: 500 µg/mL
MIC [1, 24]: 500 µg/mL
MIC [1, 25]: 500 µg/mL
MIC [1, 26]: 500 µg/mL
MIC [1, 27]: 500 µg/mL
MIC [1, 28]: 500 µg/mL
MIC [1, 29]: 500 µg/mL
MIC [1, 30]: 500 µg/mL
MIC of Iron Chelators ([2]; AB967): NG
MIC of Iron Chelators ([2]; AB2828): NG
MIC of Iron Chelators ([2]; AB3340): NG
MIC of Iron Chelators ([2]; AB3560): NG
MIC of Iron Chelators ([2]; AB3927): NG
MIC [2, 6]: 64 µg/mL
MIC [2, 7]: 32 µg/mL
MIC [2, 8]: 32 µg/mL
MIC [2, 9]: 32 µg/mL
MIC [2, 10]: 32 µg/mL
MIC [2, 11]: 32 µg/mL
MIC [2, 12]: 32 µg/mL
MIC [2, 13]: 64 µg/mL
MIC [2, 14]: 32 µg/mL
MIC [2, 15]: 64 µg/mL
MIC [2, 16]: 32 µg/mL
MIC [2, 17]: 32 µg/mL
MIC [2, 18]: 64 µg/mL
MIC [2, 19]: 32 µg/mL
MIC [2, 20]: 64 µg/mL
MIC [2, 21]: 64 µg/mL
MIC [2, 22]: 125 µg/mL
MIC [2, 23]: 125 µg/mL
MIC [2, 24]: 8 µg/mL
MIC [2, 25]: 32 µg/mL
MIC [2, 26]: 64 µg/mL
MIC [2, 27]: 32 µg/mL
MIC [2, 28]: 125 µg/mL
MIC [2, 29]: 32 µg/mL
MIC [2, 30]: 64 µg/mL
stability in aqueous solution [5]: highly stable
SMILES: OCCN1CCN(CCc2ccc(O)c3ncccc23)CC1 [Compound 4, 5-(2-(4-(2-hydroxyethyl)piperazin-1-yl)ethyl)-8-quinolinol]
reduction of bacteria (absorbance at 600 nm, 24 hours) [3, 31]: significant reduction in bacteria
reduction of bacteria (absorbance at 600 nm, 24 hours) [3, 32]: no reduction of bacteria
reduction of bacteria (absorbance at 600 nm, 24 hours) (E. coli strain EC35218; [31]): significant reduction in bacteria
reduction of bacteria (absorbance at 600 nm, 24 hours) (E. coli strain EC35218; [32]): did not result in a reduction of bacteria
OD600 (growth curves) [4]: dramatically reduced

Reference: patent US10064858B2, “Methods and compositions for treating bacterial infections with iron chelators” (THE UNITED STATES OF AMERICA, AS REPRESENTED BY THE …, priority 2011, dated 2018)
